# In publication PMC3482425 (Journal of medicinal chemistry, 2012):
# Experiments:
# LSD1 = conditions: read-out: IC50 (LSD1 inhibitor); cited from earlier work
# [1] = system: SFRP2 in Calu-6 anaplastic epithelial lung carcinoma cells; test: Re-expression of SFRP2 in Calu-6 cells; format: cell-based, human; conditions: 24 or 48 hours
# [2] = system: global H3K4me2 levels in Calu-6 human lung adenocarcinoma cells; test: cells; conditions: Calu-6, 48 h, read-out: H3K4me2 Fold Increase (48 h), 10 μM, Calu-6 cells
# [3] = system: H3K4me1 levels in Calu-6 human lung adenocarcinoma cell line; test: Global H3K4me1 levels in Calu-6 cells; format: cell-based; conditions: at both 24 and 48 hours
# [4] = system: global H3K4me2 levels in Calu-6 human lung adenocarcinoma cells; conditions: time point not stated
# [5] = system: HCAD in Calu-6 anaplastic epithelial lung carcinoma cells; test: Re-expression of HCAD in Calu-6 cells; format: cell-based, human; conditions: 10 μM
compound,measurement,setting,value
N=C(N)NN [Aminoguanidine],effect on SFRP2 levels,[1]; 1 mM,no effect
"N=C(NCCCNCCCCCCCNCCCNC(=N)NC(=N)NCCC(c1ccccc1)c1ccccc1)NC(=N)NCCC(c1ccccc1)c1ccccc1 [Compound 2d, (bis)-3,3-(diphenyl)propylbiguanide, reference compound]",fold induction at 10 µM,[2],5
"Cl.N=C(N)SCCN1C(=O)c2ccccc2C1=O [Compound 5, 2-[N-(phthalimido)]ethyl carbamimidothioate hydrochloride]",Increases in H3K4me1 levels,[3],unremarkable
Cl.Cl.NCCNc1c([N+](=O)[O-])cc(C(F)(F)F)cc1[N+](=O)[O-] [Compound 6],Increases in H3K4me1 levels,[3],unremarkable
same,changes in H3K4 / lysine methylation in the Calu-6 cell line,[4],no effect
Cl.N=C(N)SCCCN1C(=O)c2ccccc2C1=O [Compound 8],Increases in H3K4me1 levels,[3],unremarkable
Cl.N=C(N)SCCCCN1C(=O)c2ccccc2C1=O [Compound 9],Increases in H3K4me1 levels,[3],unremarkable
CCNCCCCNCCCCNCCCCNCCCCNC/C=C/CNCCCCNCCCCNCCCCNCCCCNCC [PG11144],effect on SFRP2 levels,[1]; 5 μM,no effect
same,"fold increase in HCAD expression, 24 hours",[5],1.47 fold
